# Assay results: ChEMBL document CHEMBL1201862, “PubChem BioAssay data set” (2004)
# The source made the active and inactive calls.
# Assays:
# [1] = test system: Streptococcus sp. 'group A'; test: Streptococcus pyogenes SK(-)GAS viability under kanamycin – luminescence, BacTiterGlo, confirmation, counter-screen for streptokinase expression inhibitor project, dose response (AID 1900); type: functional, organism-based
# Streptokinase A = biological target: T1, Streptokinase A (Streptococcus pyogenes serotype M1, UniProt P10520); test: viability-normalized secreted streptokinase activity reduction – plasminogen activation absorbance, OD405, dose response (AID 1914); type: functional, Streptococcus pyogenes M1 GAS;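 further: secreted streptokinase activity via plasminogen activation per viability signal from cell pellet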
# T1 sequence (P10520 whole entry): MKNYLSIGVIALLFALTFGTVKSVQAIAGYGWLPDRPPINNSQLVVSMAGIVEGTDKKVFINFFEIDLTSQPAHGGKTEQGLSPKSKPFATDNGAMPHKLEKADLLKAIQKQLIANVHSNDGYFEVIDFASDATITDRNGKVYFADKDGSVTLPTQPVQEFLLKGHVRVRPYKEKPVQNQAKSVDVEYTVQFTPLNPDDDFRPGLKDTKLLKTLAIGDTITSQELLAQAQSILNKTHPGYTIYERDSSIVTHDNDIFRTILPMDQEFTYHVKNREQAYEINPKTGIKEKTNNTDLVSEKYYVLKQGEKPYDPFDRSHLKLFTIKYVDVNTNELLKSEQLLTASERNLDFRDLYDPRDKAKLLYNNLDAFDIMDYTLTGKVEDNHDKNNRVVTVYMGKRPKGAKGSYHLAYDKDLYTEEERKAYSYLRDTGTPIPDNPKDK
# [2] = M. tuberculosis H37Rv growth inhibitors, H37Rv strain (AID 1626); type: functional
# Streptococcus = test: GAS UMAA2166 growth inhibition – luminescence, BacTiterGlo, counter-screen for streptokinase expression inhibitor project, dose response (AID 1915); type: functional, organism-based;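 further: potency for reduction of bacterial viability or growth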
# [3] = biological target: T2, Methionyl-tRNA synthetase, putative (Trypanosoma brucei brucei, UniProt Q38C91); type: functional, Trypanosoma brucei brucei strain 927/4 GUTat10.1
# T2 sequence (Q38C91 whole entry): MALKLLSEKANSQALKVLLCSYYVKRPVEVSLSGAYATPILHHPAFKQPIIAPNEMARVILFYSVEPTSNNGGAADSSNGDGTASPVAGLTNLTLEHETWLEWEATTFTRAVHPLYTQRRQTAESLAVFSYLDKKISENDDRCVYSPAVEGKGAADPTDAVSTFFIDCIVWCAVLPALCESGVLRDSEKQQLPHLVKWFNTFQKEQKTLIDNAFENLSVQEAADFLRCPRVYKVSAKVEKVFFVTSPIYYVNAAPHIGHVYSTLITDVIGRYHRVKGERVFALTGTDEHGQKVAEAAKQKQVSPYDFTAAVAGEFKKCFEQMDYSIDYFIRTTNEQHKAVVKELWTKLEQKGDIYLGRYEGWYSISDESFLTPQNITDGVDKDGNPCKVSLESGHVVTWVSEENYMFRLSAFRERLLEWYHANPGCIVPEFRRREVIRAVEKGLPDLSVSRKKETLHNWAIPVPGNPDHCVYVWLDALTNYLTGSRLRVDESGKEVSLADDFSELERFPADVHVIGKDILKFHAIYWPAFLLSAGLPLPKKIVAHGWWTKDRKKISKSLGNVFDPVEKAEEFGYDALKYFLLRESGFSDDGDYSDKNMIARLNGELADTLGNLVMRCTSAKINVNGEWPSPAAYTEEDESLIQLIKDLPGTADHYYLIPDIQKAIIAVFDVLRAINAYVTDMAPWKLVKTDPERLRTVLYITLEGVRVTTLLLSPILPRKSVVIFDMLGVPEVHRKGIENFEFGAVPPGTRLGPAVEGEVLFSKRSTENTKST
# [4] = Counterscreen for inhibitors of Trypanosoma brucei methionyl tRNA synthetase (MetRS): Luminescence-based cell-based high throughput dose response assay to identify compounds that are cytotoxic to Jurkat human T lymphocyte cells.; type: functional
# [5] = biological target: T2, Methionyl-tRNA synthetase, putative; type: functional, Trypanosoma brucei brucei strain 927/4 GUTat10.1; remark: listed apart in the source
# Paired box protein Pax-8 = Paired box protein Pax-8 (Homo sapiens, UniProt Q06710); test: PAX8 transcriptional activity inhibition in RMG-I – RMG-I cells, luciferase, cherry-pick, dose response (AID 687027); type: functional, cell-based;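 further: luciferase reporter driven by Pax8 target thyroperoxidase promoter measured by SteadyGlo luminescence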
# [6] = OVCAR8 cell viability loss – plate reader, dry powder samples, PAX8 project, dose response (AID 743197); type: functional, cell-based; conditions: OVCAR-8
# [7] = NIH-3T3 fibroblast cytotoxicity, dose response, cytotoxicity control, cell-based, fluorescence, Alamar Blue, secondary assay (AID 2327); type: functional;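 further: NIH-3T3 mouse fibroblasts cultured with fluconazole at 8 µg/mL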
# [8] = fluconazole-exposed Candida albicans growth modulators – fluorescence, retest, confirmation (AID 2467); type: functional, cell-based
# [9] = Luminescence-based cell-based high throughput dose response assay to identify activators of the DAF-12 from the parasite S. stercoralis (ssDAF-12).; type: functional
# [10] = biological target: T3, Oxysterols receptor LXR-beta (Homo sapiens, UniProt P55055); test: LXR agonists, Gal4 luciferase reporter, dose response, counter-screen for ssDAF-12 agonist project, cell-based, luminescence, HEK293, S. stercoralis campaign (AID 720737); type: functional; conditions: read-out: IC50 (the source's name)
# T3 sequence (P55055 whole entry): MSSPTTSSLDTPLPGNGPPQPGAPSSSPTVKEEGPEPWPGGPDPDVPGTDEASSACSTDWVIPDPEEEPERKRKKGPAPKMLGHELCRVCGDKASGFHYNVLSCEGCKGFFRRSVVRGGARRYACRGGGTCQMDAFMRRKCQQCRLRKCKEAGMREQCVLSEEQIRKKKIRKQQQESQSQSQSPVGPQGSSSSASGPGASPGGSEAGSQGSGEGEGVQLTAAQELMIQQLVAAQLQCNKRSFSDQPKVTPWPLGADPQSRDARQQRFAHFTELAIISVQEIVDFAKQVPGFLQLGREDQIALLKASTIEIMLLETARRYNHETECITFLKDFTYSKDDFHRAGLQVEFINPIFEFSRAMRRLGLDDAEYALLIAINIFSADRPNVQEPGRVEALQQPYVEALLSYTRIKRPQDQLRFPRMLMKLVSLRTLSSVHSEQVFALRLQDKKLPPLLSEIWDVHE
# [11] = luciferase reporter signal suppression in cells – H4 neuroglioma cells, luminescence, dose response (AID 1990); type: functional, cell-based
# cells [12] = type: functional, cell-based
# [13] = Luminescence Cell-Based Dose Response HTS to Identify Inhibitors of 5'UTR Stem-Loop Driven Prion Protein mRNA Translation in H4 Neuroglioblastoma Cells. [Related pubchem assays: 1827 (Project Summary), 1813 (Primary HTS)]; type: functional
# [14] = alpha-synuclein stem-loop luciferase translation blockers – H4 neuroglioma cells, luminescence, confirmation (AID 1988); type: functional, cell-based
# [15] = Trypanosoma cruzi growth suppression in host cells – NIH3T3 host cells, beta-gal luminescence, confirmation (AID 2044); type: functional, cell-based;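 further: intracellular parasites grown in NIH/3T3 mouse fibroblasts as host cells; luminescent beta-galactosidase reporter signal from transgenic T. cruzi replicating inside host cells; inhibitors lower the luminescence signal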
# cells [16] = type: functional, cell-based; remark: listed apart in the source
# [17] = NIH3T3 cell viability loss – ATP luminescence, mouse fibroblasts, counter-screen, dose response (AID 2010); type: functional, cell-based;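 further: cells exposed to compound for about 90 hours before reading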
# H9c2 = test: cells; type: functional, cell-based; conditions: Rattus norvegicus, H9c2, Myocardium;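 further: confirmatory concentration-response retest of ultra-high-throughput screening hits for modulation of myocardial damage; cell death induced by hydrogen peroxide oxidative stress; compound pretreatment for 60 min then peroxide exposure for 2 h; potency is for protecting the cells against peroxide damage rather than for killing them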
# Albumin = Albumin (Bos taurus, UniProt P02769); test: Counterscreen for inhibitors of T-cell receptor (TCR)-CD3 interaction: Fluorescence-based biochemical high throughput dose response assay to identify inhibitors of T-cell receptor (TCR)-CD3 interaction using a TAMRA-labeled BSA probe.; type: functional
# [18] = biological target: T3, Oxysterols receptor LXR-beta; type: functional, cell-based
# cells [19] = test: cells
# [20] = OVCAR-3 cell viability loss – plate reader, dry powder samples, PAX8 inhibitor project, dose response (AID 743044); type: functional, cell-based
# [21] = viability loss in HepG2 hepatoma cells – cell-based, ATP luminescence, cherry-pick, activator set 2, cytotoxicity control, dose response (AID 1053143); type: functional
# Chain of Paired box protein Pax-8 (Q06710 whole entry): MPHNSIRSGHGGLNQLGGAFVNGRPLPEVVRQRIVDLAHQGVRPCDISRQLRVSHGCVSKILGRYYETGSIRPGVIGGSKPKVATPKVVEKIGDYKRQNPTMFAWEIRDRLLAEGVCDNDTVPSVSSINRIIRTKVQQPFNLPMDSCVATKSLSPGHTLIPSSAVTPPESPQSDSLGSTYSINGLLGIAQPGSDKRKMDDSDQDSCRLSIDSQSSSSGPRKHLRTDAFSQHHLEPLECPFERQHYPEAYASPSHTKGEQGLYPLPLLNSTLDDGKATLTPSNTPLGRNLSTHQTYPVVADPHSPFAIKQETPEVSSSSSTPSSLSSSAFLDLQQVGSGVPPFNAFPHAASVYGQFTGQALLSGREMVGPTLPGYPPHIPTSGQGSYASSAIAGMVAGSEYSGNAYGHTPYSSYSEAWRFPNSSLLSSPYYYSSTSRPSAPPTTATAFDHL
# Chain of Albumin (P02769 whole entry): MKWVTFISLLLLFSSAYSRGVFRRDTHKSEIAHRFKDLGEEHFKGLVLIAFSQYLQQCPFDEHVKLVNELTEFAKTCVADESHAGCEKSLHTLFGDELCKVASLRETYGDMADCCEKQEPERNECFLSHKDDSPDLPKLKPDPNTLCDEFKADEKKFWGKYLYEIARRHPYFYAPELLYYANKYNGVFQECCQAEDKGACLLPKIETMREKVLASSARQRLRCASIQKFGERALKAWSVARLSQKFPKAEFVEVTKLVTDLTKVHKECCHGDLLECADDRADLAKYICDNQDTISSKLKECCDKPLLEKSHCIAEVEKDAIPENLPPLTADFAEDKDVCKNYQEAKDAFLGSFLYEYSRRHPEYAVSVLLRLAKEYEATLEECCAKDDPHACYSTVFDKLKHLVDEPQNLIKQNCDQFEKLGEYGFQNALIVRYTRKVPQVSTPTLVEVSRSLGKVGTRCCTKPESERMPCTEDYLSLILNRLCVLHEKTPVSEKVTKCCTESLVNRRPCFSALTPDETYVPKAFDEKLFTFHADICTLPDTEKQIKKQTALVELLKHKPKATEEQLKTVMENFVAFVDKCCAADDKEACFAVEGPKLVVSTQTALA
smiles,measurement,setting,value
COc1ccc(-c2nnc(SC(C(=O)c3c[nH]c4ccccc34)c3ccccc3)n2N)cc1OC (configuration not stated),EC50,[1],8.65 µM (active)
same,EC50,Streptokinase A,> 150 µM (not active)
same,IC50,[2],> 100 µM (active)
same,EC50,Streptococcus,102 µM (active)
same,IC50,[3],33.8 µM (inactive)
same,IC50,[4],83.3 µM (inactive)
same,IC50,[5],99 µM (inactive)
Cc1cccc(-c2ccc([C@H]3[C@@H](CO)N4CCCCN(S(=O)(=O)c5cccc(C)c5)C[C@@H]34)cc2)c1,AC50,Paired box protein Pax-8,8.23 µM (active)
same,AC50,[6],> 70 µM (inactive)
Cc1cccc(NC(S)=NNC(=O)c2cc3c(s2)CCC(C)C3)c1C (configuration not stated),EC50,[7],> 150 µM (inactive)
same,EC50,[8],> 38 µM (not active)
same,IC50,[9],> 67.5 µM (inactive)
same,EC50,[10],> 67.5 µM (inactive)
COc1cc2ccccc2cc1C(=O)NNC(=O)c1ccccc1O,EC50,[7],> 150 µM (inactive)
same,EC50,[11],> 60 µM (not active)
same,EC50,cells [12],> 350 µM (not active)
same,EC50,[13],14.9 µM (active)
same,EC50,[14],16.1 µM (active)
same,EC50,[8],> 38 µM (not active)
same,EC50,[15],> 60 µM (not active)
same,EC50,cells [16],> 350 µM (not active)
same,EC50,[17],> 60 µM (not active)
same,IC50,H9c2,> 79 µM (inactive)
same,IC50,Albumin,> 94.2 µM (inactive)
Cc1sc(NC(=O)c2ccc(Cl)s2)c(C(N)=O)c1C,EC50,[18],> 67.5 µM (inactive)
same,EC50,cells [19],> 67.5 µM (inactive)
Cc1ccc(S(=O)(=O)Nc2ccc3c(c2)C(=O)N([C@H](C)CO)C[C@@H](C)[C@H](CN(C)Cc2ccc(Cl)c(Cl)c2)OCCCC[C@H](C)O3)cc1,AC50,Paired box protein Pax-8,6.2 µM (active)
same,AC50,[20],25.4 µM (active)
same,AC50,[6],37.8 µM (active)
Cc1ccsc1C(=O)OCc1csc(-c2ccccc2)n1,EC50,[18],> 67.5 µM (inactive)
same,EC50,cells [19],> 67.5 µM (inactive)
Cc1cc(C)cc(NC(=O)Nc2ccc(N3CCCCC3)cc2)c1,AC50,[21],26 µM (active)
